Where two headings read alike, the source gives them in different places.
Key:
LasB = LasB (Pseudomonas aeruginosa, UniProt Q02RJ6); assay: LasB inhibition assay (FRET-based, in vitro)
Procedure: LasB Inhibition Assay. The purification of LasB from P. aeruginosa P14 supernatant as well
as the subsequent performance of the FRET-based in vitro inhibition assay was performed as
described previously.1 All samples were run in duplicate for each condition, and experiments
were performed independently at least twice.

ColH-PD = ColH-PD (Hathewaya histolytica, UniProt Q46085); assay: biochemical; design: species or system C. histolyticum; settings: for inhibition at 1 µM: read-out: % inh. of ColH-PD @1µM
HDAC-8 = target: T1, HDAC-8 (Homo sapiens, UniProt Q9BY41); assay: Human off-target inhibition assay, HDAC-8; format: biochemical
T1 sequence (Q9BY41 1-377): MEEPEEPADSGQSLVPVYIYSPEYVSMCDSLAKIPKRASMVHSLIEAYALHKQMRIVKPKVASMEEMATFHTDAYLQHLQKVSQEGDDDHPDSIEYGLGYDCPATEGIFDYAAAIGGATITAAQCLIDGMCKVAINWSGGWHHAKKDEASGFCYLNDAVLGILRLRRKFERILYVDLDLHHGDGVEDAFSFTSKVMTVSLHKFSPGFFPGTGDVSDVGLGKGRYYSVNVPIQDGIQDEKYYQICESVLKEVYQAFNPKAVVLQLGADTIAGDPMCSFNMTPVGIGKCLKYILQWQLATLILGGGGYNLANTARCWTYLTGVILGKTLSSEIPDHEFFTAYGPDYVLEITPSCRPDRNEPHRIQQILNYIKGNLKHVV
Procedure: (§1) Table 3 Activities of Four LasB Inhibitors against the Selected MMPs (% of inhibition at 100 μM) and Further Human Off-Targets ^a | column: 3; 12; 13; 23

MMP-14 = MMP-14 (Homo sapiens, UniProt P50281); assay: Human off-target inhibition assay, MMP-14; format: biochemical
HDAC-3 = HDAC-3 (Homo sapiens, UniProt O15379); assay: Human off-target inhibition assay, HDAC-3; format: biochemical
HDAC-3, sequence (O15379 whole entry): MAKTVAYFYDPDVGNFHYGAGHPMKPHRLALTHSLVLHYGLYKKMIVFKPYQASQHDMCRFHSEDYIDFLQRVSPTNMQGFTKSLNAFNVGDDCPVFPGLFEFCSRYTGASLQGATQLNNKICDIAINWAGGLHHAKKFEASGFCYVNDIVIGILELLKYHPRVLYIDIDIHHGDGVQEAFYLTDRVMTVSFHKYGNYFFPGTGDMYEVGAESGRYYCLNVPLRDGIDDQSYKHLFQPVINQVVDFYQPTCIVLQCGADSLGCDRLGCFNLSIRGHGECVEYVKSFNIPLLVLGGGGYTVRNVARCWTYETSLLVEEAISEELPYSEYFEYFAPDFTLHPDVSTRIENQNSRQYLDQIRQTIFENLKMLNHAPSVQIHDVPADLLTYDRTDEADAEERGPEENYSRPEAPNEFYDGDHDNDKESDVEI
HDAC-3, sequence (Q9Y618 395-489 partner limits assumed): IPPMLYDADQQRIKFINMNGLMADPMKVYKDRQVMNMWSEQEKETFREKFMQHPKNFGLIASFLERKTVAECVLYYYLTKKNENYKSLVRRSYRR
Procedure: as §1

MMP-1 = target: T2, MMP-1 (Homo sapiens, UniProt P03956); assay: Human off-target inhibition assay, MMP-1; format: biochemical
T2 sequence (P03956 100-469): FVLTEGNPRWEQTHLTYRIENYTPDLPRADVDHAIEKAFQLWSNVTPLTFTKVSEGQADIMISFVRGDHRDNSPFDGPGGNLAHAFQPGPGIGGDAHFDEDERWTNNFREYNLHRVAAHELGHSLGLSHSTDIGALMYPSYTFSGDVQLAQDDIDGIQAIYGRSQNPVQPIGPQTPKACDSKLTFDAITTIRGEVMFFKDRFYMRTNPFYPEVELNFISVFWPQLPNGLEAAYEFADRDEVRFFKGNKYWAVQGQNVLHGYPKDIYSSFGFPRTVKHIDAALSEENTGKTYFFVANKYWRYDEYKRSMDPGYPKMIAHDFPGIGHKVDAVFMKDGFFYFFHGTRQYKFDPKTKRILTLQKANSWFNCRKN

MMP-8 = MMP-8 (Homo sapiens, UniProt P22894); assay: Human off-target inhibition assay, MMP-8; format: biochemical
MMP-8, sequence (P22894 101-467): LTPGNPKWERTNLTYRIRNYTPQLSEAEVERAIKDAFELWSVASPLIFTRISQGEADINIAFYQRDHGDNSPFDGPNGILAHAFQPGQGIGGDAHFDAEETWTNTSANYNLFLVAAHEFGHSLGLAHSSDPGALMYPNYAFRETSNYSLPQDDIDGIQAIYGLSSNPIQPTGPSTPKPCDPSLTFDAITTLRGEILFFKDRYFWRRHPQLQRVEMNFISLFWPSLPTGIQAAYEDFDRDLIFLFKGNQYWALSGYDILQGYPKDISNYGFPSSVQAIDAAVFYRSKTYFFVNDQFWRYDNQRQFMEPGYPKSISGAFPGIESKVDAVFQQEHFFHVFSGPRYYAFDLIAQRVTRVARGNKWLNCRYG

MMP-2 = target: T3, MMP-2 (Homo sapiens, UniProt P08253); assay: Human off-target inhibition assay, MMP-2; format: biochemical
T3 sequence (P08253 110-660): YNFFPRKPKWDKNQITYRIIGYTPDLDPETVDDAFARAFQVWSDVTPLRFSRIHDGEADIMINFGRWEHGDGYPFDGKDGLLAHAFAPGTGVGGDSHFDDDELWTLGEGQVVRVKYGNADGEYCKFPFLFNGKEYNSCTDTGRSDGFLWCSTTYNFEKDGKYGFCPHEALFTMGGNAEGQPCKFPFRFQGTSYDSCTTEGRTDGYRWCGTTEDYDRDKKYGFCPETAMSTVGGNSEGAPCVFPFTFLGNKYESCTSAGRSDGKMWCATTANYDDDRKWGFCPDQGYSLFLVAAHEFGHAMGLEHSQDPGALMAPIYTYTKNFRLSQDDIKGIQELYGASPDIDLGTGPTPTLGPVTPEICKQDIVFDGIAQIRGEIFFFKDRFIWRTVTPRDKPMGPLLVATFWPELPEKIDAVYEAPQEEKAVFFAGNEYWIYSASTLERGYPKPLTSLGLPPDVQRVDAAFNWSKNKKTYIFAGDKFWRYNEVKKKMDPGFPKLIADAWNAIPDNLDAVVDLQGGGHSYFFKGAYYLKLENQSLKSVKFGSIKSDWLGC

MMP-7 = target: T4, MMP-7 (Homo sapiens, UniProt P09237); assay: Human off-target inhibition assay, MMP-7; format: biochemical
T4 sequence (P09237 95-267): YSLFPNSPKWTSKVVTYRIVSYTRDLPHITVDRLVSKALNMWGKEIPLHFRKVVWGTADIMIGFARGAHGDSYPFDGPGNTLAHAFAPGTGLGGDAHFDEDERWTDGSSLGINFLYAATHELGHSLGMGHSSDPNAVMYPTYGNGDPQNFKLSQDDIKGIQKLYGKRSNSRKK

MMP-3 = MMP-3 (Homo sapiens, UniProt P08254); assay: Human off-target inhibition assay, MMP-3; format: biochemical
MMP-3, sequence (P08254 100-477): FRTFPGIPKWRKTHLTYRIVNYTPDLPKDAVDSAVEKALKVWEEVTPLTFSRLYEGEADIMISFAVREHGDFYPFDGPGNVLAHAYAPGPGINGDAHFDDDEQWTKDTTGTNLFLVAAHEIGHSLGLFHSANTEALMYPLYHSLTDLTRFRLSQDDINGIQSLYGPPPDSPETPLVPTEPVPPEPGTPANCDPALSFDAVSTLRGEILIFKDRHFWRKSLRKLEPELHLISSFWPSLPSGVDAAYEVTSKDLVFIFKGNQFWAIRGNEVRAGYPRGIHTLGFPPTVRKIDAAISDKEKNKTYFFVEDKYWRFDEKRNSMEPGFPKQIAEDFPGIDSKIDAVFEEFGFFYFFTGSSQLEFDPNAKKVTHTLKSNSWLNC

[1] = test system: A549 cells treated with ΔlasB PA14 supernatant; format: cell-based, human; settings: 15% (v/v) ΔlasB PA14 supernatant, MTT
[2] = Cytotoxicity assay, HEK293; format: cell-based; settings: HEK293 cells; human embryonic kidney cells
ADAM17 = ADAM17 (Homo sapiens, UniProt P78536); assay: Human off-target inhibition assay, ADAM17 (TACE); format: biochemical
ADAM17, sequence (P78536 215-824): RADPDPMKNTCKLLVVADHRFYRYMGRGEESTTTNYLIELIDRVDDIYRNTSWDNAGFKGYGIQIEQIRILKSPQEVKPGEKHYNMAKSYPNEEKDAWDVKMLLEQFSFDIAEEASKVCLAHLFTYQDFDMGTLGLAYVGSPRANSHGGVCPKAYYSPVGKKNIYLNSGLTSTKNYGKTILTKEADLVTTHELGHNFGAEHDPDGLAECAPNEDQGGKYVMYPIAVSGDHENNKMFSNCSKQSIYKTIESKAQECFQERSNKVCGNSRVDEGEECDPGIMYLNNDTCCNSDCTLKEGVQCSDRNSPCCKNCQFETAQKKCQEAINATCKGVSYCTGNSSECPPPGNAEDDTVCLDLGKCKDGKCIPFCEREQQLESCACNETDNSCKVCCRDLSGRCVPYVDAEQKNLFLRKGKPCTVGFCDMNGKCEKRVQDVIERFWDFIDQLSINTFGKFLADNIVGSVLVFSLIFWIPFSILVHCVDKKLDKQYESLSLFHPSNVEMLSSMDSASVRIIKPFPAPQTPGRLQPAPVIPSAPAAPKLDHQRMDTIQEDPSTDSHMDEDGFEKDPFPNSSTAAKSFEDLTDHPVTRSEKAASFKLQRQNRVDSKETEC

P. aeruginosa PA14 = assay: Antibacterial activity (MIC) assay; format: cell-based, Pseudomonas aeruginosa
Cytotoxicity assay, A549 = format: cell-based; settings: A549 cells; adenocarcinomic human alveolar basal epithelial cells
[3] = test system: A549 cells treated with wt PA14 supernatant; settings: 15% (v/v) wt PA14 supernatant; for effect on viability of A549 cells treated with wt PA14 supernatant (in words): MTT
[4] = test system: NHDF cells treated with wt PA14 supernatant; format: cell-based, human; settings: 15% (v/v) wt PA14 supernatant; for effect on viability of NHDF cells treated with wt PA14 supernatant (in words): MTT
[5] = Cytotoxicity assay, HepG2; format: cell-based; settings: HepG2 cells; human hepatoma cell line
[6] = test system: A549 cells treated with wt PA14 supernatant; assay: cells; settings: Homo sapiens, A549, 24 h, read-out: increase in viability of A549 cells
zebrafish embryos = assay: Zebrafish embryo toxicity (maximum tolerated concentration) assay; format: in vivo; settings: for toxicity (larvae with toxicity signs): Table S2
G. mellonella larvae = assay: In vivo Galleria mellonella virulence assay; settings: compound with wt PA14 supernatant, after 6 days

LasB, sequence (Q02RJ6 198-498): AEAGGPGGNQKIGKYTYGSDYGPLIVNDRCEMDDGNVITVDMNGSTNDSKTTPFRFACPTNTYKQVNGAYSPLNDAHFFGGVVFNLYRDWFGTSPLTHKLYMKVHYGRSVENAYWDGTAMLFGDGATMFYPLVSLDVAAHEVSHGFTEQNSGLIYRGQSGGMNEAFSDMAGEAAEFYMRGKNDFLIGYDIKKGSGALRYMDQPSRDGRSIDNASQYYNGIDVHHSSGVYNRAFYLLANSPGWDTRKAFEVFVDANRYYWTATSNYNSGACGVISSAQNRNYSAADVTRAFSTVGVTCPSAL
ColH-PD, sequence (Q46085 331-721 limits assumed): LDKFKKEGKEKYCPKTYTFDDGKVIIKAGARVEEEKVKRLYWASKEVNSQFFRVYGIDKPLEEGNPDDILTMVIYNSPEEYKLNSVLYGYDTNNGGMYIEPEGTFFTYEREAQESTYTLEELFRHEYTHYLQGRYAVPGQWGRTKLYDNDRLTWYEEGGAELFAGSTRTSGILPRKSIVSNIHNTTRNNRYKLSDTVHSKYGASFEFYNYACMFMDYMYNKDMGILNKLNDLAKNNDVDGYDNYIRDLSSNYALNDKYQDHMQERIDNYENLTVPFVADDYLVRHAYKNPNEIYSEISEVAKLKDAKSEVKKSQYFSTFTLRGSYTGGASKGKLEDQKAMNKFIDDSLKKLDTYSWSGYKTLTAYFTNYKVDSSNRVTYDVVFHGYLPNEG

O=C(Nc1ccccn1)C(S)Cc1ccccc1 (centres unmarked) [Compound 21]
IC50 (LasB): 3.1 ± 0.2 µM

O=C(Nc1ccccc1)C(S)Cc1ccc(O)c([N+](=O)[O-])c1 (centres unmarked) [Compound 16]
inhibition at 1 µM (ColH-PD): 74 ± 5% | IC50 (LasB): 2.5 ± 0.2 µM

O=C(Nc1ccccc1)C(S)Cc1ccc(Cl)cc1 (centres unmarked) [Compound 17]
IC50 (LasB): 1.1 ± 0.1 µM

Cc1ccc(CC(S)C(=O)Nc2ccccc2)cc1 (centres unmarked) [Compound 14]
inhibition at 1 µM (ColH-PD): 69 ± 3% | IC50 (LasB): 2.8 ± 0.3 µM

O=C(Nc1ccccc1)C(S)Cc1ccccc1 (centres unmarked) [Compound 5]
Ki (ColH-PD): 0.4 ± 0.04 µM | IC50 (LasB; read-out: IC50 against LasB, mean and SD of at least two independent experiments): 1.2 ± 0.1 µM

O=C(Nc1ccncc1)C(S)Cc1ccccc1 (centres unmarked) [Compound 22]
IC50 (LasB): 4.9 ± 0.5 µM

O=C(Nc1ccccc1)C(S)Cc1ccc(O)cc1 (centres unmarked) [Compound 15]
inhibition at 1 µM (ColH-PD): 63 ± 2% | IC50 (LasB): 7.4 ± 0.6 µM | decrease in activity compared to compound 3 (LasB; LasB IC50 ratio vs compound 3): 15 fold

Cc1ccc(NC(=O)C(S)Cc2ccccc2)cc1 (centres unmarked) [Compound 3]
IC50 (HDAC-8): > 100 µM | inhibition at 100 µM (MMP-14): < 10% | IC50 (HDAC-3): > 100 µM | Ki (ColH-PD): 0.05 ± 0.01 µM | inhibition at 100 µM (MMP-1): < 10% | boost in potency compared to compound 4 (LasB; LasB IC50 ratio vs compound 4): 12 fold | ligand efficiency (LE) (LasB; calculated from LasB activity): 0.43 | lipophilic ligand efficiency (LLE) (LasB; calculated from LasB activity): 2.37 | inhibition at 100 µM (MMP-8): < 10% | inhibition at 100 µM (MMP-2): < 10% | inhibition at 100 µM (MMP-7): < 10% | inhibition at 100 µM (MMP-3): < 10%

O=C(Nc1ccc(O)cc1)C(S)Cc1ccccc1 (centres unmarked) [Compound 13]
effect on A549 cells treated with ΔlasB PA14 supernatant (in words) [1]: no effect | IC50 (HDAC-8): > 250 µM | inhibition at 100 µM (MMP-14): < 10% | IC50 (HDAC-3): > 250 µM | IC50 [2]: > 100 µM | IC50 (ADAM17): 2.3 ± 1.4 µM | Ki (ColH-PD): 0.1 ± 0.02 µM | inhibition at 100 µM (MMP-1): < 10% | IC50 (LasB): 0.6 ± 0.04 µM | inhibition at 100 µM (MMP-8): 19 ± 4% | MIC (P. aeruginosa PA14; Pseudomonas aeruginosa, P. aeruginosa PA14): > 100 µM | reduction of bacterial growth (P. aeruginosa PA14; at 100 μM): less than 10% | inhibition at 100 µM (MMP-2): < 10% | inhibition at 100 µM (MMP-7): < 10% | IC50 (Cytotoxicity assay, A549): > 100 µM | effect on viability of A549 cells treated with wt PA14 supernatant (in words) [3]: Dose-dependent effect | effect on viability of NHDF cells treated with wt PA14 supernatant (in words) [4]: Concentrations-dependent effects | IC50 [5]: > 100 µM | inhibition at 100 µM (MMP-3): < 10%

CC(C)C[C@H](NP(=O)(O)O[C@@H]1O[C@@H](C)[C@H](O)[C@@H](O)[C@H]1O)C(=O)N[C@@H](Cc1c[nH]c2ccccc12)C(=O)O [Pam, phosphoramidon, reference compound]
cell integrity and morphology of A549 cells (bright-field imaging) [3]: cell integrity and morphology were maintained | cell integrity and morphology of NHDF cells (bright-field imaging) [4]: cell integrity and morphology were maintained

COC(=O)c1ccsc1NC(=O)C(S)Cc1ccccc1 (centres unmarked) [Compound 19]
IC50 (LasB): 8 ± 1.1 µM

COc1ccc2nc(NC(=O)C(S)Cc3ccccc3)sc2c1 (centres unmarked) [Compound 24]
effect on A549 cells treated with ΔlasB PA14 supernatant (in words) [1]: no effect | Ki (ColH-PD): 28 ± 1 µM | IC50 (LasB): 1 ± 0.1 µM | viability at 50 µM [6]: 80 ± 15% | effect on viability of A549 cells treated with wt PA14 supernatant (in words) [3]: Dose-dependent effect

O=C(Nc1nc2ccccc2[nH]1)C(S)Cc1ccccc1 (centres unmarked) [Compound 26]
inhibitory activity against LasB (in words) (LasB; compared to compound 23): dramatic decrease in the inhibitory activity

O=C(Nc1ccc([N+](=O)[O-])cc1)C(S)Cc1ccccc1 (centres unmarked) [Compound 11]
inhibition at 1 µM (ColH-PD): 88 ± 2% | IC50 (LasB): 1 ± 0.1 µM

COc1ccc(NC(=O)C(S)Cc2ccccc2)cc1 (centres unmarked) [Compound 12, 2-Mercapto-N-(4-methoxyphenyl)-3-phenylpropanamide]
Survival rate % (zebrafish embryos; 2 µM): 100% | toxicity (larvae with toxicity signs) (zebrafish embryos; 2 µM): No toxicity signs were observed | Survival rate % (zebrafish embryos; 30 µM): 0% | embryo observation (zebrafish embryos; 30 µM, 2 dpf): imp. dev. | embryo observation (zebrafish embryos; 30 µM, 3 dpf): all dead | toxicity (larvae with toxicity signs) (zebrafish embryos; 30 µM): 100% | Survival rate % (zebrafish embryos; 50 µM): 0% | embryo observation (zebrafish embryos; 50 µM, 3 dpf): all dead | toxicity (larvae with toxicity signs) (zebrafish embryos; 50 µM): 100% | Survival rate % (zebrafish embryos; 100 µM): 0% | embryo observation (zebrafish embryos; 100 µM, 2 dpf): all dead | toxicity (larvae with toxicity signs) (zebrafish embryos; 100 µM): 100% | maximum tolerated concentration (MTC) (zebrafish embryos; zebrafish embryos, until 120 hpf): ≤ 2 µM | effect on A549 cells treated with ΔlasB PA14 supernatant (in words) [1]: no effect | survival of larvae (G. mellonella larvae): 70 ± 5% | IC50 (HDAC-8): > 100 µM | inhibition at 100 µM (MMP-14): < 10% | IC50 (HDAC-3): > 100 µM | IC50 (ADAM17): 4.1 ± 0.1 µM | Ki (ColH-PD): 0.04 ± 0.01 µM | inhibition at 100 µM (MMP-1): < 10% | IC50 (LasB): 0.7 ± 0.03 µM | inhibition at 100 µM (MMP-8): 12 ± 2% | inhibition at 100 µM (MMP-2): < 10% | inhibition at 100 µM (MMP-7): < 10% | effect on viability of A549 cells treated with wt PA14 supernatant (in words) [3]: Dose-dependent effect | effect on viability of NHDF cells treated with wt PA14 supernatant (in words) [4]: Concentrations-dependent effects | inhibition at 100 µM (MMP-3): < 10%

O=C(Nc1cccnc1)C(S)Cc1ccccc1 (centres unmarked) [Compound 20]
IC50 (LasB): 1.2 ± 0.04 µM

O=C(Nc1nc2ccc(Cl)cc2s1)C(S)Cc1ccccc1 (centres unmarked) [Compound 25]
IC50 (LasB): 2.4 ± 0.2 µM

O=C(Nc1nccs1)C(S)Cc1ccccc1 (centres unmarked) [Compound 18]
inhibition at 1 µM (ColH-PD): 34 ± 3% | IC50 (LasB): 1.6 ± 0.1 µM
